Holding throughout (type): biochemical
One assay addresses T1, KRAS G12V (Homo sapiens, UniProt P01116, G12V).
T1 construct: made in house; host or cells: E. coli, e.g. BL21 (DE3)
The experiment in a line: HTRF KRAS-SOS1 interaction assay, KRAS G12V. The note with it: binned ≤2 μM / >2 μM, read-out: Inhibition of KRAS G12V (IC50). The method, boiled down:
(§1)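 GST-tagged KRAS (WT or mutant) with anti-GST-Eu donor and His-hSOS1 with anti-6His-XL665 acceptor were combined in 5 mM HEPES pH 7.4, 150 mM NaCl, 1 mM DTT, 0.05% BSA, 0.0025% Igepal. After ~10 min, HTRF was read (ex 337, em 620/665 nm); IC50 from 665/620 ratio.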
On the technique in general: TR-FRET usually uses a lanthanide donor and a delayed reading to cut background.

The target of a further assay is T2, KRAS G12D (Homo sapiens, UniProt P01116, G12D).
T2 construct: made in house; host or cells: E. coli, e.g. BL21 (DE3)
T2 sequence (P01116 1-188 isoform P01116-2 G12D): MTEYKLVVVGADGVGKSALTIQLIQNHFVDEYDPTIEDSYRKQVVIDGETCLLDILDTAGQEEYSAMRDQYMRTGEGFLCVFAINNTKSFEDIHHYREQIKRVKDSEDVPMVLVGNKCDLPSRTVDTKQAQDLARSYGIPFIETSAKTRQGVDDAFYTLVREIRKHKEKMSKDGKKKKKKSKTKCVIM
The experiment in a line: HTRF KRAS-SOS1 interaction assay, KRAS G12D. The note with it: binned ≤2 μM / >2 μM, read-out: Inhibition of KRAS G12D (IC50). Put shortly: as §1

In the next assay the target is T3, KRAS WT (Homo sapiens, UniProt P01116).
T3 construct: made in house; host or cells: E. coli, e.g. BL21 (DE3)
T3 sequence (P01116 1-188 isoform P01116-2): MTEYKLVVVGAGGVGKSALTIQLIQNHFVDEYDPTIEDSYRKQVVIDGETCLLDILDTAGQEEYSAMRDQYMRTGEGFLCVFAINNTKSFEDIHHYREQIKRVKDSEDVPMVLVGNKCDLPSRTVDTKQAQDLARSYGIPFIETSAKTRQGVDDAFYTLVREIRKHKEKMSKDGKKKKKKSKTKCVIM
Kind of assay: HTRF KRAS-SOS1 interaction assay, wildtype KRAS. The note with it: binned ≤2 μM / >2 μM, read-out: Inhibition of KRAS WT (IC50). The method, boiled down:
as §1

For a further assay, the target named is T4, KRAS G12S (Homo sapiens, UniProt P01116, G12S).
T4 construct: made in house; host or cells: E. coli, e.g. BL21 (DE3)
T4 sequence (P01116 1-188 isoform P01116-2 G12S): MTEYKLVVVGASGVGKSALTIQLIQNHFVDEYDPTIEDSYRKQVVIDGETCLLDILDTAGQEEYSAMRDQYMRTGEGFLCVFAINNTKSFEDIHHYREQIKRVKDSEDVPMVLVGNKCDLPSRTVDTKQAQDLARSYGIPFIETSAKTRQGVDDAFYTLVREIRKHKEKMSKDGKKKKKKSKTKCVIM
The experiment in a line: HTRF KRAS-SOS1 interaction assay, KRAS G12S. The note with it: binned ≤2 μM / >2 μM, read-out: Inhibition of KRAS G12S (IC50). The method, boiled down: as §1

For 17 molecules, IC50 results are on record in US12668600B2 (Kumquat Biosciences Inc., priority 2023, dated 2026).

T1 sequence (P01116 1-188 isoform P01116-2 G12V): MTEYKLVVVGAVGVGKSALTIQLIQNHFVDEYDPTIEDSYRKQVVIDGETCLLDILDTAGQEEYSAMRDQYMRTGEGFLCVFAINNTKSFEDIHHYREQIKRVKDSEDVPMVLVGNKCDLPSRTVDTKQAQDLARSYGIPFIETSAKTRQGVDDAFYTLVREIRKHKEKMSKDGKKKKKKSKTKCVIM

As usually defined, the IC50 is the concentration that inhibits the measured activity by half. Consider `N#Cc1c(N)sc2c(F)ccc(-c3c(Cl)c4c5c(nc(OC[C@@]67CCCN6C[C@H](F)C7)nc5c3F)N(C(/C=C/F)c3cccnc3N)CCO4)c12` (single isomer, unassigned) [Compound 708], for which the IC50 at KRAS G12V, on KRAS G12D, at KRAS WT and on KRAS G12S was no more than 2 µM in each case.

Take `C=CCC(c1cccnc1N)N1CCOc2c(Cl)c(-c3ccc(F)c4sc(N)c(C#N)c34)c(F)c3nc(OC[C@@]45CCCN4C[C@H](F)C5)nc1c23` (mixture of isomers) [Compound 623, 2-amino-4-((9R)-4-(1-(2-aminopyridin-3-yl)but-3-en-1-yl)-8-chloro-10-fluoro-2-(((2R,7aS)-2-fluorotetrahydro-1H-pyrrolizin-7a (5H)-yl)methoxy)-5,6-dihydro-4H-[1,4]oxazepino[5,6,7-de]quinazolin-9-yl)-7-fluorobenzo[b]thiophene-3-carbonitrile]: the IC50 on KRAS G12V, at KRAS G12D, on KRAS WT and at KRAS G12S was no more than 2 µM each time.

Consider `C[C@H](c1cncnc1N)N1CCOc2c(C(F)(F)F)c(-c3cccc4sc(N)c(C#N)c34)c(F)c3nc(OC[C@@]45CCCN4C[C@H](F)C5)nc1c23` (single isomer, unassigned) [Compound 723], for which the IC50 on KRAS G12V, on KRAS G12D, on KRAS WT and on KRAS G12S was no more than 2 µM in each case.

As for `C=C1CN2CC(=C)CC2(COc2nc3c4c(c(C(F)(F)F)c(-c5ccc(F)c6sc(N)c(C#N)c56)c(F)c4n2)OCCN3[C@H](C)c2cncnc2N)C1` (single isomer, unassigned) [Compound 707], the IC50 at KRAS G12V, at KRAS G12D, at KRAS WT and at KRAS G12S was no more than 2 µM each time.

Turning to `COC[C@H](c1cccnc1N)N1CCOc2c(C(F)(F)F)c(-c3ccc(F)c4sc(N)c(C#N)c34)c(F)c3nc(OC[C@@]45CCCN4C[C@H](F)C5)nc1c23` [Compound 684, 2-amino-4-(4-((S)-1-(2-aminopyridin-3-yl)-2-methoxyethyl)-10-fluoro-2-(((2R,7aS)-2-fluorotetrahydro-1H-pyrrolizin-7a(5H)-yl)methoxy)-8-(trifluoromethyl)-5,6-dihydro-4H-[1,4]oxazepino[5,6,7-de]quinazolin-9-yl)-7-fluorobenzo[b]thiophene-3-carbonitrile], the IC50 at KRAS G12V, at KRAS G12D, at KRAS WT and at KRAS G12S was no more than 2 µM in each case.

In the case of `N#Cc1c(N)sc2c(F)ccc(-c3c(C(F)(F)F)c4c5c(nc(OC[C@@]67CCCN6C[C@H](F)C7)nc5c3F)N([C@H](CC3CCC3)c3cccnc3N)CCO4)c12` (single isomer, unassigned) [Compound 902], the IC50 at KRAS G12V, on KRAS G12D, on KRAS WT and at KRAS G12S was greater than 2 µM in each case.

Turning to `CC[S+]([O-])[C@H]1CN2CCC[C@@]2(COc2nc3c4c(c(Cl)c(-c5ccc(F)c6sc(N)c(C#N)c56)c(F)c4n2)OCCN3[C@H](C)c2cccnc2N)C1` (mixture of isomers) [Compound 906, 2-amino-4-(4-((R)-1-(2-aminopyridin-3-yl)ethyl)-8-chloro-2-(((2R,7aS)-2-(ethylsulfinyl)tetrahydro-1H-pyrrolizin-7a(5H)-yl)methoxy)-10-fluoro-5,6-dihydro-4H-[1,4]oxazepino[5,6,7-de]quinazolin-9-yl)-7-fluorobenzo[b]thiophene-3-carbonitrile], the IC50 on KRAS G12V, on KRAS G12D, on KRAS WT and on KRAS G12S was no more than 2 µM throughout.

Consider `C#CC(F)(F)[C@H](c1cccnc1N)N1CCOc2c(Cl)c(-c3ccc(F)c4sc(N)c(C#N)c34)c(F)c3nc(OC[C@@]45CCCN4C[C@H](F)C5)nc1c23` [Compound 867, 2-amino-4-(4-((S)-1-(2-aminopyridin-3-yl)-2,2-difluorobut-3-yn-1-yl)-8-chloro-10-fluoro-2-(((2R,7aS)-2-fluorotetrahydro-1H-pyrrolizin-7a(5H)-yl)methoxy)-5,6-dihydro-4H-[1,4]oxazepino[5,6,7-de]quinazolin-9-yl)-7-fluorobenzo[b]thiophene-3-carbonitrile], for which the IC50 at KRAS G12V, at KRAS G12D, at KRAS WT and on KRAS G12S was no more than 2 µM throughout.

Consider `CN(C)CCC[C@H](c1cccnc1N)N1CCOc2c(C(F)(F)F)c(-c3ccc(F)c4sc(N)c(C#N)c34)c(F)c3nc(OC[C@@]45CCCN4C[C@H](F)C5)nc1c23` (single isomer, unassigned) [Compound 705], for which the IC50 on KRAS G12V, at KRAS G12D, at KRAS WT and at KRAS G12S was no more than 2 µM each time.

For `C[C@H](c1ccc(C#N)nc1N)N1CCOc2c(Cl)c(-c3ccc(F)c4sc(N)c(C#N)c34)c(F)c3nc(OC[C@@]45CCCN4C[C@H](F)C5)nc1c23` [Compound 851, 6-amino-5-((1R)-1-(9-(2-amino-3-cyano-7-fluorobenzo[b]thiophen-4-yl)-8-chloro-10-fluoro-2-(((2R,7aS)-2-fluorotetrahydro-1H-pyrrolizin-7a(5H)-yl)methoxy)-5,6-dihydro-4H-[1,4]oxazepino[5,6,7-de]quinazolin-4-yl)ethyl)picolinonitrile], the IC50 on KRAS G12V, at KRAS G12D, on KRAS WT and at KRAS G12S was no more than 2 µM throughout.

For `C[C@H](c1cccnc1N)N1CCOc2c(C(F)(F)F)c(-c3ccc(F)c4sc(N)c(C#N)c34)c(F)c3nc(OCC4(CN5[C@H](C)COC[C@@H]5C)CC4)nc1c23` (single isomer, unassigned) [Compound 763], the IC50 at KRAS G12V, on KRAS G12D, on KRAS WT and at KRAS G12S was no more than 2 µM each time.

Turning to `C[C@H](c1cc(F)cnc1N)N1CCOc2c(C(F)(F)F)c(-c3ccc(F)c4sc(N)c(C#N)c34)c(F)c3nc(OC[C@@]45CCCN4C[C@@]4(CC4(F)F)C5)nc1c23` [Compound 878, 2-amino-4-(4-((R)-1-(2-amino-5-fluoropyridin-3-yl)ethyl)-2-(((1S,7a′S)-2,2-difluorodihydro-1′H,3′H-spiro[cyclopropane-1,2′-pyrrolizin]-7a′(5′H)-yl)methoxy)-10-fluoro-8-(trifluoromethyl)-5,6-dihydro-4H-[1,4]oxazepino[5,6,7-de]quinazolin-9-yl)-7-fluorobenzo[b]thiophene-3-carbonitrile], the IC50 on KRAS G12V, at KRAS G12D, at KRAS WT and at KRAS G12S was no more than 2 µM each time.

Take `N#Cc1c(N)sc2c(F)ccc(-c3c(C(F)(F)F)c4c5c(nc(OC[C@@]67CCCN6C[C@H](F)C7)nc5c3F)N([C@H](CCCN3CCCCC3)c3cccnc3N)CCO4)c12` (single isomer, unassigned) [Compound 704]: the IC50 at KRAS G12V, at KRAS G12D, on KRAS WT and on KRAS G12S was no more than 2 µM throughout.

With `N#Cc1c(N)sc2cccc(-c3c(Cl)c4c5c(nc(OC[C@@]67CCCN6C[C@H](F)C7)nc5c3F)N([C@@H](c3cccnc3N)C(F)F)CCO4)c12` (single isomer, unassigned) [Compound 672], the IC50 at KRAS G12V, on KRAS G12D, on KRAS WT and on KRAS G12S was no more than 2 µM in each case.

Take `C[C@H](c1cccnc1N)N1CCOc2c(Cl)c(-c3ccc(F)c4sc(N)c(C#N)c34)c(F)c3nc(OC[C@@H]4CC(F)(F)CN4C)nc1c23` (single isomer, unassigned) [Compound 741]: the IC50 on KRAS G12V, on KRAS G12D, on KRAS WT and at KRAS G12S was no more than 2 µM each time.

Consider `C[C@H](c1cc(F)cnc1N)N1CCOc2c(C(F)(F)F)c(-c3ccc(F)c4sc(N)c(C#N)c34)c(F)c3nc(OC[C@@]45CCCN4C[C@H](F)C5)nc1c23` (single isomer, unassigned) [Compound 864], for which the IC50 on KRAS G12V, on KRAS G12D, on KRAS WT and at KRAS G12S was no more than 2 µM in each case.

In the case of `C[C@H](c1cccnc1N)N1CCOc2c(Cl)c(-c3ccc(F)c4sc(N)c(C#N)c34)c(F)c3nc(OC[C@@]45CCCN4CC(=NOCC(F)(F)F)C5)nc1c23` (mixture of isomers) [Compound 917, 2-amino-4-(4-((R)-1-(2-aminopyridin-3-yl)ethyl)-8-chloro-10-fluoro-2-(((S)-2-((2,2,2-trifluoroethoxy)imino)tetrahydro-1H-pyrrolizin-7a(5H)-yl)methoxy)-5,6-dihydro-4H-[1,4]oxazepino[5,6,7-de]quinazolin-9-yl)-7-fluorobenzo[b]thiophene-3-carbonitrile], the concentration for half-maximal inhibition (IC50) on KRAS G12V, on KRAS G12D, at KRAS WT and at KRAS G12S was no more than 2 µM each time.
